In general, Ki refers to the equilibrium dissociation constant of an inhibitor or competing ligand from its target. Low readings indicate higher affinity, high ones lower affinity. The EC50 is the concentration at which the effect is half-maximal.

In patent US11332461B2, “2-(1H-pyrazol-3-yl) phenol compound and use thereof” (BEIJING JIALIN PHARMACEUTICAL INC., priority 2017, dated 2022) one finds Ki and EC50 data, which are given here for 41 compounds.

In test [1] the target is BRM protein (Homo sapiens, UniProt P51531). Kind of test: Ki of compounds (Table 1; no method described). The test is classed as binding.
In test [2] the test system is H1299 cells (BRG1−/BRM+ cell line). Kind of test: Cell viability test, tetrazolium salt (MTT) method. It counts as cell-based. The settings on record: Homo sapiens, NCI-H1299, cultured 3-4 days with compound, OD 490 nm. The text has this: A tetrazolium salt (MTT) method is used for determining the pharmacodynamics activity of the compounds of the present invention by using H1299 cells as the cell line, wherein the cell line has deletion of the BRG1 gene (BRG1−), and has no deletion of the BRM gene (BRM+). That is, the cells of the cell line cannot express a BRG1 protein, but can normally express a BRM protein. Small molecules that could prevent the BRM protein from interacting with the chromosomes in the cells, could prevent the BRM protein from exerting functions in the cells. According to the law of synergistic lethality, in a BRG1-gene-deleted cell, if the function of the BRM protein is blocked, cell death will be caused, thereby achieving the function that the small molecules kill cancer cells.
The specific steps of the test are as follows: • (1) different experimental cell lines are subcultured into a 96-well plate, and to prevent a marginal effect, the peripheries of the 96-well plate are added with 100 μL of PBS as a blank, wherein the cell line as used is H1299 cells (BRG1−/BRM+cell line); • (2) when the cells are in adherent growth to be 40-50%, different concentrations of drug molecules and DMSO as controls are added, the cells treated with the small molecules continue to be cultured for 3-4 days, and the medium is replaced by a medium supplemented with small molecules during the culture; • (3) after the 96-well plate treated with DMSO in the control group is full of the cells, each well is added with 20 μL of a MTT mother liquor (5 mg/mL); • (4) the cell plate is placed back into a […] incubator of 37° C. and continue to be incubated for 4 hours; • (5) the MTT solution is pipetted off, and each well is added with 150 μL DMSO; • (6) the 96-well plate is placed in a shaker at room temperature with protection from light for 15 min, until purple crystals are completely dissolved. • (7) The absorbance (OD) of each well is determined by a SpectraMax M5 multi-well plate reader (Molecular Devices, USA) at a wavelength of 490 nm.
According to a conventional detection method, the EC50 values of respective compounds (small molecules) are determined, and the results are summarized in Table 1.

Some results are limits rather than exact numbers.

Chain of BRM protein (P51531 whole entry): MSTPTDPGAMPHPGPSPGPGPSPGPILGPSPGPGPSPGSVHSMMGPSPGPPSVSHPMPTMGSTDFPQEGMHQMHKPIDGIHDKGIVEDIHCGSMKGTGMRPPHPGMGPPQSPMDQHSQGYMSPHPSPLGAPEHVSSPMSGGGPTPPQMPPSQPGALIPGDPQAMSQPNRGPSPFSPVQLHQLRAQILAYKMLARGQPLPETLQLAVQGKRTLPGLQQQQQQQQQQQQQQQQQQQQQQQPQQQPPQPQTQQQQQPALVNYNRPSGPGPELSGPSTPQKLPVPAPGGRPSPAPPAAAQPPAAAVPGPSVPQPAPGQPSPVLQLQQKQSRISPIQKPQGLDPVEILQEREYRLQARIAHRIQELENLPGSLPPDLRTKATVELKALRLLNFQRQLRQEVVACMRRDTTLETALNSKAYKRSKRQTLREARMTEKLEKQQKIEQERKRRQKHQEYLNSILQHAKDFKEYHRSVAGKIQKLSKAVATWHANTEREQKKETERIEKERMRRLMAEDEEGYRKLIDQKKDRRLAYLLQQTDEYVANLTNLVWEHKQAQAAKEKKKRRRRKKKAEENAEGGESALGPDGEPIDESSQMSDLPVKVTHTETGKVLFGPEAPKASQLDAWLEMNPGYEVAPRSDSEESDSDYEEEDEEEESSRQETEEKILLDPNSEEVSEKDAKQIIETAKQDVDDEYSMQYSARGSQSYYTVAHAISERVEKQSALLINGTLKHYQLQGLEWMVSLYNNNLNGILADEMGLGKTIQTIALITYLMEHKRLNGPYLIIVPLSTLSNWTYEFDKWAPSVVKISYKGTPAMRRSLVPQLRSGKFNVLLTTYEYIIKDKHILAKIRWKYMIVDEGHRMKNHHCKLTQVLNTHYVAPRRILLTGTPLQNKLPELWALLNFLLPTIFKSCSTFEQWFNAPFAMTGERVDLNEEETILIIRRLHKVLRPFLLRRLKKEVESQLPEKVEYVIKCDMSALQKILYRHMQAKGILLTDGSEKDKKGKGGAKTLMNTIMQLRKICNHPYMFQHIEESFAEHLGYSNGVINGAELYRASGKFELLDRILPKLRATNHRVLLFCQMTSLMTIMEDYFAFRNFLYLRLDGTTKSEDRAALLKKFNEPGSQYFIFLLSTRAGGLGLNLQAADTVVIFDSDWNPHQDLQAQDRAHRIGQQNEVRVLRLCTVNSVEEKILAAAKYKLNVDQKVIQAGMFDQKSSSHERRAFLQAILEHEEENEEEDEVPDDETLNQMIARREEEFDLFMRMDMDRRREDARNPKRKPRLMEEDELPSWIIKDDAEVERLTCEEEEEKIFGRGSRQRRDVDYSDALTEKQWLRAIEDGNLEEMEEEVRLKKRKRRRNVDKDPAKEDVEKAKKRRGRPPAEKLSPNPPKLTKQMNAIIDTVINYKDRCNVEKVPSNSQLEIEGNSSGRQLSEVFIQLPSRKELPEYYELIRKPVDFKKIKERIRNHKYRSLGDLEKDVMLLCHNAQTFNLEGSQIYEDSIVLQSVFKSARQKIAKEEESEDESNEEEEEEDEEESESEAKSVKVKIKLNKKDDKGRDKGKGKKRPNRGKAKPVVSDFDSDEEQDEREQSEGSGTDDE

As to `Nc1c(F)ccc(O)c1-c1cc(-c2ccc(Br)cc2)[nH]n1` [BRM2-4], affinity in test [1] was put at a Ki of 1.8 µM. Moreover, the EC50 in test [2] is 6.7 µM.
Compound `Nc1cccc(O)c1-c1cc(-c2ccc(Br)cc2)[nH]n1` [BRM2-6] returned a Ki in test [1] of 2.3 µM. Further, in test [2], the EC50 is 12 µM.
For the compound `CC(C)(C)c1ccc(-c2cc(-c3cc(F)ccc3O)n[nH]2)cc1` [BRM2-8], in test [1], the Ki is 2.2 µM. Besides, the EC50 in test [2] worked out at 8.5 µM.
On the same counts, the results for `CCc1ccc(-c2cc(-c3cc(F)ccc3O)n[nH]2)cc1` [BRM2-9] are 4.6 µM and over 20 µM.
The corresponding values for `Cc1ccccc1-c1cc(-c2cc(F)ccc2O)n[nH]1` [BRM2-11] are 1.6 µM and over 20 µM.
In test [1], `Nc1c(F)ccc(O)c1-c1cc(-c2ccc(-c3ccc(F)cc3)cc2)[nH]n1` [BRM2-22] registered an inhibition constant Ki of 1.5 µM. Further, the half-maximal effective concentration (EC50) in test [2] came to 3.3 µM.
The corresponding values for `Cc1cccc(C)c1-c1ccc(-c2cc(-c3cc(F)ccc3O)n[nH]2)cc1` [BRM2-27] are 2.7 µM and over 20 µM.
Turning to `CS(=O)(=O)c1ccc(-c2ccc(-c3cc(-c4cc(F)ccc4O)n[nH]3)cc2)cc1` [BRM2-30], the Ki in test [1] stood at 2 µM. The EC50 in test [2] was 10.5 µM.
As for `CN1CCCN(c2ccc(-c3cc(-c4cc(F)ccc4O)n[nH]3)cc2)CC1` [BRM2-31], in test [1], the affinity corresponds to a Ki of 0.9 µM. Besides, in test [2], the EC50 worked out at 1.7 µM.
`CN1CCN(c2ccc(-c3cc(-c4cc(F)ccc4O)n[nH]3)cc2)CC1` [BRM2-32]: the affinity in test [1] corresponds to a Ki of 3.7 µM. Moreover, in test [2], the EC50 is 5.8 µM.
For `Oc1ccc(F)cc1-c1cc(-c2ccc(N3CCCCC3)cc2)[nH]n1` [BRM2-33], in test [1], the Ki came out at 2.7 µM. In test [2], the EC50 was found to be 15 µM.
Turning to `CN1CCN(c2ccccc2-c2cc(-c3cc(F)ccc3O)n[nH]2)CC1` [BRM2-34], the Ki in test [1] amounted to 1.4 µM. Further, the EC50 in test [2] is 7.6 µM.
`CN1CCN(c2cccc(-c3cc(-c4cc(F)ccc4O)n[nH]3)c2)CC1` [BRM2-39]: the Ki in test [1] is 1.8 µM. Further, the EC50 in test [2] amounted to 9.3 µM.
`Oc1ccc(F)cc1-c1cc(N2CC3CC2CN3c2ccccn2)[nH]n1` (stereo not shown) [BRM2-41] gave a Ki in test [1] of 2.7 µM. In addition, the EC50 in test [2] was 13.5 µM.
Turning to `O=C(Nc1ccc(-c2cc(-c3cc(F)ccc3O)n[nH]2)cc1)c1c(F)cccc1F` [BRM2-105], the inhibitory constant (Ki) in test [1] came out at 4.1 µM. Further, the EC50 in test [2] is over 20 µM.
Take `O=C(Nc1ccc(-c2cc(-c3cc(F)ccc3O)n[nH]2)cc1)C12CC3CC(CC(C3)C1)C2` [BRM2-106]: in test [1], the Ki amounted to 0.2 µM. Also, in test [2], the EC50 came out at 0.9 µM.
With `Cc1ccc(C(=O)Nc2ccc(-c3cc(-c4cc(F)ccc4O)n[nH]3)cc2)cn1` [BRM2-111], the Ki in test [1] came out at 0.8 µM. Further, in test [2], the EC50 was 3.8 µM.
In the case of `O=C(Nc1ccc(-c2cc(-c3cc(F)ccc3O)n[nH]2)cc1)c1ccccn1` [BRM2-112], in test [1], affinity was put at a Ki of 0.9 µM. Further, the EC50 in test [2] is 6.5 µM.
`COc1cccc(C(=O)Nc2ccc(-c3cc(-c4cc(F)ccc4O)n[nH]3)cc2)c1OC` [BRM2-113] displayed a Ki in test [1] of 2 µM. For the same compound, the EC50 in test [2] is over 20 µM.
In the case of `O=C(Nc1ccc(-c2cc(-c3cc(F)ccc3O)n[nH]2)cc1)c1cccc(F)c1F` [BRM2-114], the Ki in test [1] is 3 µM. For the same compound, in test [2], the EC50 is 11.4 µM.
The compound `O=C(Nc1ccc(-c2cc(-c3cc(F)ccc3O)n[nH]2)cc1)c1cccnc1` [BRM2-121] yielded an inhibition constant Ki in test [1] of 0.6 µM. Further, the EC50 in test [2] turned out to be 2.4 µM.
In the case of `O=C(Nc1ccc(-c2cc(-c3cc(F)ccc3O)n[nH]2)cc1)c1ccnc(Cl)c1` [BRM2-123], the affinity in test [1] corresponds to a Ki of 0.7 µM. Also, the 50% effective concentration (EC50) in test [2] worked out at 2.8 µM.
In turn, `O=C(Nc1ccc(-c2cc(-c3cc(F)ccc3O)n[nH]2)cc1)c1cnccn1` [BRM2-124] gave an inhibitory constant (Ki) in test [1] of 0.6 µM. Besides, in test [2], the EC50 stood at 1.5 µM.
The corresponding values for `O=C(NCc1ccc(F)cc1)c1cc(-c2cc(F)ccc2O)n[nH]1` [BRM2-136] are 3 µM and 18 µM.
The compound `O=C(NCCc1ccc(O)cc1)c1cc(-c2cc(F)ccc2O)n[nH]1` [BRM2-137] registered an inhibitory constant (Ki) in test [1] of 1.1 µM. In test [2], the EC50 is over 20 µM.
Turning to `O=C(NCc1ccc(O)cc1)c1cc(-c2cc(F)ccc2O)n[nH]1` [BRM2-138], the Ki in test [1] stood at 2 µM. Moreover, in test [2], the EC50 is over 20 µM.
For the compound `O=C(NCCc1ccc(Cl)cc1)c1cc(-c2cc(F)ccc2O)n[nH]1` [BRM2-140], the Ki in test [1] stood at 2 µM. In addition, in test [2], the EC50 was 14.7 µM.
In test [1], `CN(Cc1ccccc1)C(=O)c1cc(-c2cc(F)ccc2O)n[nH]1` [BRM2-143] displayed a Ki of 2.8 µM. In addition, the concentration giving a half-maximal response (EC50) in test [2] came out at 17.3 µM.
As for `CCN(Cc1ccccc1)C(=O)c1cc(-c2cc(F)ccc2O)n[nH]1` [BRM2-144], the Ki in test [1] was determined as 4.6 µM. Further, the EC50 in test [2] is over 20 µM.
Consider `CC(C)N(Cc1ccccc1)C(=O)c1cc(-c2cc(F)ccc2O)n[nH]1` [BRM2-145], for which, in test [1], the Ki is 5.3 µM. Also, the EC50 in test [2] is over 20 µM.
In test [1], `COC(=O)C(CCS(C)(=O)=O)NC(=O)c1cc(-c2cc(F)ccc2O)n[nH]1` (stereo not shown) [BRM2-149] returned a Ki of 1.2 µM. In test [2], the EC50 was 8.9 µM.
As for `COC(=O)C1CCCN1C(=O)c1cc(-c2cc(F)ccc2O)n[nH]1` (stereo not shown) [BRM2-150], in test [1], the affinity corresponds to a Ki of 1.8 µM. Also, in test [2], the EC50 amounted to 10.3 µM.
`COC(=O)C(Cc1cnc[nH]1)NC(=O)c1cc(-c2cc(F)ccc2O)n[nH]1` (stereo not shown) [BRM2-152]: the Ki in test [1] was found to be 0.5 µM. Also, the EC50 in test [2] worked out at 2.5 µM.
In turn, `NC(=O)CCC(NC(=O)c1cc(-c2cc(F)ccc2O)n[nH]1)C(=O)N1CCOCC1` (stereo not shown) [BRM2-156] showed an inhibitory constant (Ki) in test [1] of 0.4 µM. Moreover, the EC50 in test [2] was 1.7 µM.
The corresponding values for `O=C(NCCc1ccc(F)cc1)c1cc(-c2cc(F)ccc2O)n[nH]1` [BRM2-157] are 0.8 µM and 4.3 µM.
For `Nc1cc(-c2cc(F)ccc2O)n[nH]1` [BRM2-160], the Ki in test [1] stood at 3.2 µM. The 50% effective concentration (EC50) in test [2] was determined as 18.2 µM.
Turning to `O=C(Nc1cc(-c2cc(F)ccc2O)n[nH]1)c1ccccc1` [BRM2-162], in test [1], the affinity corresponds to a Ki of 6.8 µM. The EC50 in test [2] was over 20 µM.
The corresponding values for `O=C(Nc1cc(-c2cc(F)ccc2O)n[nH]1)c1ccc(O)cc1` [BRM2-163] are 4.4 µM and 17.2 µM.
Turning to `O=C(Cc1ccc(O)cc1)Nc1cc(-c2cc(F)ccc2O)n[nH]1` [BRM2-164], the Ki in test [1] amounted to 6.9 µM. Also, the EC50 in test [2] was over 20 µM.
Turning to `O=C(Nc1cc(-c2cc(F)ccc2O)n[nH]1)c1cnccn1` [BRM2-166], the Ki in test [1] is 1.7 µM. Also, in test [2], the EC50 came out at 7.3 µM.
Regarding `O=C(Cc1ccc(F)cc1)Nc1cc(-c2cc(F)ccc2O)n[nH]1` [BRM2-168], the affinity in test [1], expressed as Ki, was 2.5 µM. Moreover, the EC50 in test [2] is 13.4 µM.
